Measurements from patent US9713606B2, “Methods for treating pulmonary emphysema using substituted 2-Aza-bicyclo[2.2.1]heptane-3-carboxylic acid (benzyl-cyano-methyl)-amides inhibitors of cathepsin C” (Boehringer Ingelheim International GmbH, priority 2013, dated 2017).
Read-outs that look alike come from different tables or passages of the source.

Assays:
[1] = Determination of metabolic stability with human liver microsomes; assay type: in vitro ADME; settings: pooled human liver microsomes, 1 mg/ml protein, 1 μM test compound, 37° C.; for half-life at 1 μM: pH 7.6, read-out: In vitro stability in human liver microsome incubations t½
Source text: Determination of Metabolic Stability with Human Liver Microsomes

[2] = tested on: neutrophil elastase activity in U937 cells; test: Determination of neutrophil elastase activity in U937 cytosolic lysate preparation after incubation with test compound; assay type: cell-based, human
Method: Determination of Neutrophil Elastase Activity in U937 Cytosolic Lysate Preparation after Incubation with Test Compound Materials:
Optiplate 384F were purchased from PerkinElmer (Prod. No. #6007270). 24 well Nunclon cell culture plates (No. 142475) and 96 well plates (No. 267245) were from Nunc. Dimethylsulfoxid (DMSO) was from Sigma (Prod. No. D8418). Nonidet-P40 (NP40) was from USBiological (Prod. No. N3500)
Substrate, specific for Neutrophil elastase, was from Bachem (MeOSuc-Ala-Ala-Pro-Val-AMC; Prod. No. I-1270).
Human neutrophil elastase was from Calbiochem (Prod. No. 324681)
Tris-buffer (100 mM Tris; 1M NaCL; pH 7.5)
Tris-buffer+HSA 0.1%; Human Serum Albumin from Calbiochem (Cat#. 126658)
Serine-protease buffer (20 mM Tris; 100 mM NaCL; pH 7.5)+0.1% HSA
Serine protease lysis buffer: 20 mM Tris-HCL; 100 mM NaCl pH 7.5; +0.2% Nonidet-P40;
PBS: phosphate buffered saline, without Ca and Mg, from Gibco
U937 from ECACC (Cat. No. 85011440) cultured in suspension at 37° C. and 5% CO2.
Cell density: 0.2-1 Mio. Cells/ml.
Medium: RPMI1640 GlutaMAX (No. 61870) with 10% FCS from Gibco
Cell Seeding and Treatment:
Compounds in 100% DMSO were diluted in Medium (-FCS) with 10% DMSO and further diluted according to the experiment planned.
20 μl of the compound solution was transferred in the respective wells of the 24 well plate and diluted with 2 ml cell suspension/well containing 1'10^5 cells/ml (final concentration of DMSO=0.1%). Compound dilution factor=100 […]
Frozen lysates were thawn at 37° C. for 10 minutes and stored on ice. Protein content was determined with Bradford protein assay. […]
The increase in fluorescence (Ex360 nm/Em 460 nm) is determined over 30 minutes with a Molecular Device Spectramax M5 Fluorescence Reader. […] The amount of neutrophil elastase (ng/ml) is calculated using the standard curve and the Spectramax software. […] Percent inhibition in the compound-treated lysate samples is calculated relative to the DMSO-treated control-sample (100−(compound-sample*100)/control-sample)
[…] is calculated using Graphpad Prism; nonlinear fitting (log(inhibitor) vs. response—Variable slope).

[3] = biological target: recombinant human DPPI (Cathepsin C) (Homo sapiens (Human), UniProt P53634); test: Inhibition of human DPPI (Cathepsin C); assay type: biochemical; settings: substrate Gly-Arg-AMC
Method: Inhibition of Human DPPI (Cathepsin C)
Bovine serum albumin (BSA; Prod. No. A3059) and Dithiothreitol (DTT; Prod. No D0632) were from Sigma. […] The DPP1 inhibitor Gly-Phe-DMK was purchased from MP Biomedicals (Prod.-No. 03DK00625). The recombinant human DPPI was purchased from Prozymex. All other materials were of highest grade commercially available.
The following buffers were used: MES buffer: 25 mM MES, 50 mM NaCl, 5 mM DTT, adjusted to pH 6.0, containing 0.1% BSA; TAGZyme Buffer: 20 mM NaH2PO4, 150 mM NaCl adjusted to pH 6.0 with HCl
Then, 5 μL of substrate in MES buffer (final concentration 50 μM) were added. The microtiter plates were then incubated at room temperature for […] Then, the reaction was stopped by adding 10 μL of Gly-Phe-DMK in MES-buffer (final concentration 1 μM).
The analysis of the data was performed by calculating the percentage of fluorescence in the presence of test compound in comparison to the fluorescence of the vehicle control after subtracting the background fluorescence using the following formula: (RFU(sample)−RFU(background))*100/(RFU(control)−RFU(background))
Data from these calculations were used to generate IC50 values for inhibition of DPPI, respectively.

[4] = biological target: recombinant human Cathepsin K (Homo sapiens (Human), UniProt P43235); test: Inhibition of human Cathepsin K; assay type: biochemical; settings: substrate Z-Gly-Pro-Arg-AMC
Source text: Inhibition of Human Cathepsin K
Materials: Microtiterplates (Optiplate-384 F were purchased from PerkinElmer (Prod. No. 6007270). The substrate Z-Gly-Pro-Arg-AMC was from Biomol (Prod.-No. P-142). L-Cysteine (Prod. No. 168149) was from Sigma. Sodium acetate was from Merck (Prod.-No. 6268.0250), EDTA was from Fluka (Prod.-No. 03680). The inhibitor E-64 was purchased from Sigma (Prod.-No. E3132). The recombinant human Cathepsin K proenzyme was purchased from Biomol (Prod. No. SE-367). All other materials were of highest grade commercially available. […]
5 μL test compound (final concentration 0.1 nM to 100 μM) in aqua bidest (containing 4% DMSO, final DMSO concentration 1%) were mixed with 10 uL of Cathepsin K in assay buffer (final concentration 2 ng/μL) and incubated for 10 min. […] The fluorescence in the wells was determined using a Molecular Devices SpectraMax M5 Fluorescence Reader (Ex 360 nm, Em 460 nm).
Each assay microtiter plate contains wells with vehicle controls (1% DMSO in bidest) as reference for non-inhibited enzyme activity (100% Ctl; high values) and wells with inhibitor (E64 in bidest+1% DMSO, final concentration 1 μM) as controls for background fluorescence (0% Ctl; low values). […]

[5] = Homo sapiens, U-937, read-out: Reduction of NE-activity in U937 cells IC50

Sequence of recombinant human DPPI (Cathepsin C) (P53634 231-394): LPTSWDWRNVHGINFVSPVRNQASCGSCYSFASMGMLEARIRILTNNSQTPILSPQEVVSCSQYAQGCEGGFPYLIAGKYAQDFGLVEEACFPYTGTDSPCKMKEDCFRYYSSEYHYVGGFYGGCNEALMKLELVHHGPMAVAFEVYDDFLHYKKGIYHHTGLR
Sequence of recombinant human DPPI (Cathepsin C) (P53634 395-463): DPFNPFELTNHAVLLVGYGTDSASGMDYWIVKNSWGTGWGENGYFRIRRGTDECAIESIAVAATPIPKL
Sequence of recombinant human DPPI (Cathepsin C) (P53634 25-134): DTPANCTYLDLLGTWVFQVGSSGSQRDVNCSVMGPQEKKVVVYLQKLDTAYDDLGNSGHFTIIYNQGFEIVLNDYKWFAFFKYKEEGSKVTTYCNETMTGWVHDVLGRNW
Sequence of recombinant human Cathepsin K (P43235 115-329): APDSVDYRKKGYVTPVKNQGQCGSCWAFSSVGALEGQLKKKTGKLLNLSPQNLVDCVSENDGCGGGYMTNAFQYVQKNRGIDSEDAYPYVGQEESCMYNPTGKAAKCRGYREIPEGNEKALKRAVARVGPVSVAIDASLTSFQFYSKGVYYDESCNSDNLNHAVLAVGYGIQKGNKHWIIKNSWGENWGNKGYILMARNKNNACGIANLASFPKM

In the case of `CN1CCC(N2C(=O)Cc3ccc(-c4ccc(C[C@@H](C#N)NC(=O)[C@H]5N[C@@H]6CC[C@H]5C6)c(F)c4)cc32)CC1` [Example 346], the “In vitro stability in human liver microsome incubations t½” value (shortened to “In vitro stability”) [1] is reported as over 2.17 h.
For `N#CC(Cc1ccc(-c2cnn(-c3ccccc3)c2)cc1F)NC(=O)[C@H]1N[C@@H]2CC[C@H]1C2` (stereo partly drawn) [Example 78], the “In vitro stability” value [1] was 2.17 h.
For `N#C[C@H](Cc1ccc(N2CCCN3CCCC3C2)cc1F)NC(=O)[C@H]1N[C@@H]2CC[C@H]1C2` (stereo partly drawn) [Example 271], the “In vitro stability” value [1] was 2.17 h.
In the case of `N#C[C@H](Cc1ccc(N2CC3CCN(C4CCOC4)C3C2)cc1F)NC(=O)[C@H]1N[C@@H]2CC[C@H]1C2` (stereo partly drawn) [Example 348], the “In vitro stability” value [1] is reported as 2.17 h.
For `CS(=O)(=O)c1ccc(-c2ccc(C[C@@H](C#N)NC(=O)[C@H]3N[C@@H]4CC[C@H]3C4)c(F)c2)cc1OCC(F)F` [Example 252], the “In vitro stability” value [1] was 2.17 h.
With `N#C[C@H](Cc1ccc(N2CCN(CC3CCOC3)CC2)cc1F)NC(=O)[C@H]1N[C@@H]2CC[C@H]1C2` (stereo partly drawn) [Example 154] the half-life at 1 μM [1] was over 2.17 h, the IC50 [2, 5] was 4.6 nM and the IC50 [3] was 13.5 nM. The IC50 [4] was 4600 nM.
`CC(C)c1cc(-c2ccc(C[C@@H](C#N)NC(=O)[C@H]3N[C@@H]4CC[C@H]3C4)c(F)c2)ccc1[S+](C)[O-]` (stereo partly drawn) [Example 251] gave an IC50 [3] of 11.5 nM.
For `CN1CCCN(S(=O)(=O)c2ccc(-c3ccc(C[C@@H](C#N)NC(=O)[C@H]4N[C@@H]5CC[C@H]4C5)c(F)c3)cc2)CC1` [Example 340], the IC50 [2, 5] was 0.8 nM.
For `CS(=O)(=O)c1cc(OCC(F)(F)F)cc(-c2ccc(C[C@@H](C#N)NC(=O)[C@H]3N[C@@H]4CC[C@H]3C4)c(F)c2)c1` [Example 276], the “In vitro stability” value [1] was 2.17 h.
`CN1C(=O)Cc2ccc(-c3cc(F)c(C[C@@H](C#N)NC(=O)[C@H]4N[C@@H]5CC[C@H]4C5)cc3F)cc21` [Example 31] showed a half-life at 1 μM [1] of 1.5 h.
In the case of `CN1C(=O)Cc2ccc(-c3ccc(CC(C#N)NC(=O)[C@H]4N[C@@H]5CC[C@H]4C5)c(F)c3)cc21` (stereo partly drawn) [Example 15], the “In vitro stability” value [1] is reported as 2.17 h.
For `N#C[C@H](Cc1ccc(-c2ccc(S(=O)(=O)N3CCOCC3)cc2)cc1F)NC(=O)[C@H]1N[C@@H]2CC[C@H]1C2` [Example 217], the IC50 ([2]; read-out: Reduction of NE-activity in U937 cells IC50) was 7.5 nM.
